In ChEMBL document CHEMBL1126955, “Substituted thiopyrano[2,3,4-c,d]indoles as potent, selective, and orally active inhibitors of 5-lipoxygenase. Synthesis and biological evaluation of L-691,816” (J Med Chem, 1993):

Tests used:
[1] = Maximum time taken for compound to reach peak concentration in rat plasma; format: ADME, organism-based
[2] = Bioavailability in rat (dose 20 mg/kg p.o. in 1% methocel, and 5 mg/kg i.v. in PEG400); format: ADME, organism-based; conditions: in vivo, po
Rattus norvegicus = assay: Tested for percent inhibition of dyspnea duration in hyperreactive rat model after peroral administration of 5 mg/kg; format: functional; conditions: route oral
[3] = biological target: T1, Polyunsaturated fatty acid 5-lipoxygenase (Rattus norvegicus, UniProt P12527); assay: In vitro test for inhibition of 5-lipoxygenase in cell-free preparations from rat PMN leukocytes
T1 sequence (P12527 whole entry): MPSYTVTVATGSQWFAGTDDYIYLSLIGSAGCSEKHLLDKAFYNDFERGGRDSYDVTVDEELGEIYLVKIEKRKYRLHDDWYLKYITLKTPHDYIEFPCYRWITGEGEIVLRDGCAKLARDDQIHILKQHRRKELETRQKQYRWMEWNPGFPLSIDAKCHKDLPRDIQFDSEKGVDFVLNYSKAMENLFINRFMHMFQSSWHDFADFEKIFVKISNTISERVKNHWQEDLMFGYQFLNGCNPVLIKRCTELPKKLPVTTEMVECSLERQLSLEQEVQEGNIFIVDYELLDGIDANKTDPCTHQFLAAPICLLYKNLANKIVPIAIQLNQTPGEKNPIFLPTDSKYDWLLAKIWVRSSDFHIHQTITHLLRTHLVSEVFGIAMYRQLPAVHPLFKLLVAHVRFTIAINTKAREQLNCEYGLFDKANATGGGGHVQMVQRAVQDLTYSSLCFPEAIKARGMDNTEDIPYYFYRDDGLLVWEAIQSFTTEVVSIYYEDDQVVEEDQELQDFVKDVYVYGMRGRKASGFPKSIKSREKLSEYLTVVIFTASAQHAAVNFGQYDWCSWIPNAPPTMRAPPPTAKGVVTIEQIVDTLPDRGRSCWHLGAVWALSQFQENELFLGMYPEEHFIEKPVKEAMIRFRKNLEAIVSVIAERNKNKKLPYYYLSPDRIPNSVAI

[4] = Peak concentration in rat plasma was determined; format: ADME, organism-based
[5] = biological target: T2, Polyunsaturated fatty acid 5-lipoxygenase (Homo sapiens, UniProt P09917); assay: In vitro inhibition of LTB4 biosynthesis in [Ca(2+)]-ionophore-activated human polymorphonuclear leukocytes; format: functional
T2 sequence (P09917 whole entry): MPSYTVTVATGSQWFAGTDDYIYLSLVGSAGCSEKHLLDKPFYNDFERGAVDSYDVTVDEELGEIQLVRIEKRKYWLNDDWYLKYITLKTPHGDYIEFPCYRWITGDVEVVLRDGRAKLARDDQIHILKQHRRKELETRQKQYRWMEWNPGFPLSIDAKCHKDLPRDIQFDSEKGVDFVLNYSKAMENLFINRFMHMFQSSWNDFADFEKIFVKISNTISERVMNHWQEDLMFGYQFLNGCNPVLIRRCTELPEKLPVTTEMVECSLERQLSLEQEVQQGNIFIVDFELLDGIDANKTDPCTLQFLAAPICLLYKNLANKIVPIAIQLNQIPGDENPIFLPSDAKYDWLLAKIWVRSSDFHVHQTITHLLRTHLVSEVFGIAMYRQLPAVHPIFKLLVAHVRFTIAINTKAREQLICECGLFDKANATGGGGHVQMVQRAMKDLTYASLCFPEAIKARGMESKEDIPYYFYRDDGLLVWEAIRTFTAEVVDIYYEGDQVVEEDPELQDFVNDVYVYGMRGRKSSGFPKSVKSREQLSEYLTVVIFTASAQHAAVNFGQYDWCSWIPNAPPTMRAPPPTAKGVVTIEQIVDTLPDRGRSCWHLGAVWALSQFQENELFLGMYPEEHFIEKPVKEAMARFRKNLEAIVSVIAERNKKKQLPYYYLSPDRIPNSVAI

Homo sapiens [6] = organism: Homo sapiens; assay: Tested in vitro for the inhibition of LTB4 biosynthesis in [Ca(2+)]-ionophore-activated human polymorphonuclear leukocytes; (Result of a single titration); format: functional
[7] = biological target: T3, Arachidonate 5-lipoxygenase-activating protein (Homo sapiens, UniProt P20292); assay: Tested for inhibition of leukotriene biosynthesis by binding to 5-lipoxygenase activating protein
T3 sequence (P20292 whole entry): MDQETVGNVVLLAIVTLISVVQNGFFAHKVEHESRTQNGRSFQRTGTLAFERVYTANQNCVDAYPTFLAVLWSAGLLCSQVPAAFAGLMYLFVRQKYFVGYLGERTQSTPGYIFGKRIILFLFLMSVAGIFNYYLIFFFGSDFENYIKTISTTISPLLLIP

Homo sapiens [8] = organism: Homo sapiens; assay: Tested in vitro for the inhibition of LTB4 biosynthesis in [Ca(2+)]-ionophore-activated human polymorphonuclear leukocytes (Result of a single titration); format: functional
[9] = biological target: T4, Polyunsaturated fatty acid 5-lipoxygenase (Rattus norvegicus) (UniProt P12527); assay: Tested in vitro for the inhibition of 5-lipoxygenase in cell-free preparations from rat PMN leukocytes; conditions: concentration not given here
T4 sequence (whole entry): T1 sequence (P12527 whole entry)

SMILES | IC50 [3] [nM] | IC50 [5] [nM] | also measured
CC1Cc2c(OCc3ccc(-c4ccccc4)cn3)ccc3c2c(c(CC(C)(C)CC(=O)N(C)O)n3Cc2ccc(Cl)cc2)S1 (stereo not drawn) |  |  | IC50 (Homo sapiens [6]): 500 nM
CC1(C)Cc2c(OCc3ccc(-c4ccccc4)cn3)ccc3c2c(c(CC(C)(C)C(=O)O)n3Cc2ccc(Cl)cc2)S1 | 3000 | 88 | 
C[C@H]1Cc2c(OCc3ccc(-c4ccccc4)cn3)ccc3c2c(c(CC(C)(C)C(=O)O)n3Cc2ccc(Cl)cc2)[S+]1[O-] (stereo partly drawn) | 8000 |  | IC50 (Homo sapiens [6]): > 2000 nM
CC1Cc2c(OCc3ccc(-c4ccccc4)cn3)ccc3c2c(c(CC(C)(C)C(=O)O)n3Cc2ccccn2)S1 (stereo not drawn) | 45 | 110 | 
CCC1Cc2c(OCc3ccc(-c4ccccc4)cn3)ccc3c2c(c(CC(C)(C)C(=O)O)n3Cc2ccc(Cl)cc2)S1 (stereo not drawn) | 130 | 33 | 
CC1Cc2c(OCc3ccc(-c4ccccc4)cn3)ccc3c2c(c(CC(=O)O)n3Cc2ccc(Cl)cc2)S1 (stereo not drawn) | 200 | 37 | 
CC1Cc2c(OCc3ccc(-c4ccccc4)cn3)ccc3c2c(c(C(=O)O)n3Cc2ccc(Cl)cc2)S1 (stereo not drawn) | 2000 | 97 | 
CCCCn1c(CC(C)(C)C(=O)O)c2c3c(c(OCc4ccc(-c5ccccc5)cn4)ccc31)CC(C)S2 (stereo not drawn) | 130 | 95 | 
CC1Cc2c(OCc3ccc(-c4ccccc4)cn3)ccc3c2c(c(CC(C)(C)C(=O)O)n3C)S1 (stereo not drawn) |  | 300 | 
C[C@@H]1Cc2c(OCc3ccc(-c4ccccc4)cn3)ccc3c2c(c(CC(C)(C)C(=O)O)n3Cc2ccc(Cl)cc2)[S+]1[O-] (stereo partly drawn) | 330 | 830 | 
CC1Cc2c(OCc3ccc(-c4ccccc4)cn3)ccc3c2c(c(CC(C)(C)CC(=O)NS(=O)(=O)C(F)(F)F)n3Cc2ccc(Cl)cc2)S1 (stereo not drawn) | 67 | 125 | 
CC1Cc2c(OCc3ccc(-c4ccccc4)cn3)ccc3c2c(c(CC(C)(C)CC(N)=O)n3Cc2ccc(Cl)cc2)S1 (stereo not drawn) |  |  | IC50 (Homo sapiens [6]): 1500 nM
CC1Cc2c(OCc3ccc(-c4ccccc4)cn3)ccc3c2c(c(CC(C)(C)C(=O)O)n3CC2CCCCC2)S1 (stereo not drawn) | 35 | 33 | 
CC1Cc2c(OCc3ccc(-c4ccccc4)cn3)ccc3c2c(c(CCC(=O)O)n3Cc2ccc(Cl)cc2)S1 (stereo not drawn) | 140 | 38 | 
CC(C)(Cc1c2c3c(c(OCc4ccc(-c5ccccc5)cn4)ccc3n1Cc1ccc(Cl)cc1)CCS2)C(=O)O | 200 | 100 | 
CC1Cc2c(OCc3ccc(C(=O)O)cn3)ccc3c2c(c(CC(C)(C)C(=O)O)n3Cc2ccc(Cl)cc2)S1 (stereo not drawn) | > 2000 |  | IC50 (Homo sapiens [8]): > 2000 nM
CC1Cc2c(OCc3ccc(-c4ccccc4)cn3)ccc3c2c(c(CC(C)(C)C(=O)O)n3C(=O)c2ccccc2)S1 (stereo not drawn) | 140 |  | IC50 (Homo sapiens [6]): 60 nM
CC1Cc2c(OCc3ccc(-c4ccccc4)cc3)ccc3c2c(c(CC(C)(C)C(=O)O)n3Cc2ccc(Cl)cc2)S1 (stereo not drawn) | 1000 | 165 | 
CC1Cc2c(OCc3ccccn3)ccc3c2c(c(CC(C)(C)C(=O)O)n3Cc2ccc(Cl)cc2)S1 (stereo not drawn) | 630 | 35 | IC50 [7]: 110 nM
CC1Cc2c(OCc3ccc(-c4ccccc4)cn3)ccc3c2c(c(CC(C)(C)C(=O)O)n3Cc2ccc(Cl)cc2)S1(=O)=O (stereo not drawn) | 320 | 210 | 
CC1Cc2c(OCc3cccs3)ccc3c2c(c(CC(C)(C)C(=O)O)n3Cc2ccc(Cl)cc2)S1 (stereo not drawn) | 2000 | 28 | 
CC1Cc2c(OCc3cc(-c4ccccc4)ccn3)ccc3c2c(c(CC(C)(C)C(=O)O)n3Cc2ccc(Cl)cc2)S1 (stereo not drawn) | 2000 | 80 | 
CC1Cc2c(OCc3ccc(-c4ccccc4)cn3)ccc3c2c(c(CC(C)(C)C(=O)O)n3Cc2ccc(S(C)(=O)=O)cc2)S1 (stereo not drawn) | 350 | 420 | 
CC1Cc2c(OCc3ccc(-c4ccccc4)cn3)ccc3[nH]c(CC(C)(C)C(=O)O)c(c23)S1 (stereo not drawn) |  | 500 | inhibition [9]: 23%
CC1Cc2c(OCc3ccc(C#N)cn3)ccc3c2c(c(CC(C)(C)C(=O)O)n3Cc2ccc(Cl)cc2)S1 (stereo not drawn) | 350 | 66 | 
CCCCc1ccc(COc2ccc3c4c2CC(C)Sc4c(CC(C)(C)C(=O)O)n3Cc2ccc(Cl)cc2)nc1 (stereo not drawn) | 500 | 42 | 
CC1Cc2c(OCCc3ccc(-c4ccccc4)cn3)ccc3c2c(c(CC(C)(C)Cc2nnn[nH]2)n3Cc2ccc(Cl)cc2)S1 (stereo not drawn) | 1200 | 46 | 
CC(C)(Cc1c2c3c(c(OCc4ccc(-c5ccccc5)cn4)ccc3n1Cc1ccc(Cl)cc1)CCCS2)C(=O)O |  | 160 | inhibition [9]: 20%
CSc1c(CC(C)(C)C(=O)O)n(Cc2ccc(Cl)cc2)c2ccc(OCc3ccc(-c4ccccc4)cn3)cc12 | 600 | 170 | 

The remaining compounds from weak to strong by IC50 [5], led by results:

IC50 [3] [nM] | IC50 [5] [nM] | SMILES | also measured
40 | 28 | COc1ccc(Cn2c(CC(C)(C)C(=O)O)c3c4c(c(OCc5ccc(-c6ccccc6)cn5)ccc42)CC(C)S3)cc1 (stereo not drawn) | 
40 | 28 | COc1cccc(Cn2c(CC(C)(C)C(=O)O)c3c4c(c(OCc5ccc(-c6ccccc6)cn5)ccc42)CC(C)S3)c1 (stereo not drawn) | 
2500 | 27 | CC1Cc2c(OCc3cccc(-c4ccccc4)n3)ccc3c2c(c(CC(C)(C)C(=O)O)n3Cc2ccc(Cl)cc2)S1 (stereo not drawn) | 
35 | 23 | CC1Cc2c(OCc3ccc(-c4ccccc4)cn3)ccc3c2c(c(CC(C)(C)C(=O)O)n3CCCc2ccccc2)S1 (stereo not drawn) | 
330 | 23 | CC1Cc2c(OCc3ccc(-c4ccccc4)cn3)ccc3c2c(c(CCC(C)(C)C(=O)O)n3Cc2ccc(Cl)cc2)S1 (stereo not drawn) | 
 | 22 | CC1Cc2c(OCc3ccc(-c4ccccc4)cn3)ccc3c2c(c(CC(C)(C)C(=O)O)n3Cc2ccc(Cl)cc2)S1 (stereo not drawn) | 
400 | 20 | CC1Cc2c(OCc3cc4ccccc4cn3)ccc3c2c(c(CC(C)(C)C(=O)O)n3Cc2ccc(Cl)cc2)S1 (stereo not drawn) | IC50 [7]: 390 nM
130 | 19 | CC1Cc2c(OCc3ccc(-c4ccccc4)cn3)ccc3c2c(c(CC(C)(C)CCC(=O)O)n3Cc2ccc(Cl)cc2)S1 (stereo not drawn) | 
30 | 16 | CC1Cc2c(OCc3ccc(-c4ccccc4)cn3)ccc3c2c(c(CC(C)(C)C(=O)O)n3Cc2ccc(-c3ccccc3)cn2)S1 (stereo not drawn) | 
20 | 12 | CC1Cc2c(OCc3ccc(-c4ccccc4)cn3)ccc3c2c(c(CC(C)(C)CC(=O)O)n3Cc2ccc(Cl)cc2)S1 (stereo not drawn) | Tmax [1]: 2 h; bioavailability [2]: 27%; inhibition in vivo at 5 mg/kg (Rattus norvegicus): 54%; Cmax [4]: 4 µM
400 | 12 | COc1ccc(COc2ccc3c4c2CC(C)Sc4c(CC(C)(C)C(=O)O)n3Cc2ccc(Cl)cc2)nc1 (stereo not drawn) | IC50 [7]: 40 nM
36 | 11 | CC1Cc2c(OCc3ccc(-c4ccccc4)cn3)ccc3c2c(c(CC(C)(C)CC(=O)NS(C)(=O)=O)n3Cc2ccc(Cl)cc2)S1 (stereo not drawn) | Tmax [1]: 4 h; bioavailability [2]: 45%; inhibition in vivo at 5 mg/kg (Rattus norvegicus): 44%; Cmax [4]: 12 µM
120 | 11 | CC1Cc2c(SCc3ccc(-c4ccccc4)cn3)ccc3c2c(c(CC(C)(C)Cc2nnn[nH]2)n3Cc2ccc(Cl)cc2)S1 (stereo not drawn) | 
600 | 3 | CC1Cc2c(OCc3ccc4ccccc4n3)ccc3c2c(c(CC(C)(C)C(=O)O)n3Cc2ccc(Cl)cc2)S1 (stereo not drawn) | 
